The source of these data is PubChem BioAssay (NCI).

Structures are written as SMILES. Several values for one entry are separate records, joined by “and”; a condition that tells them apart may be missing. Identical values can stand only once.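 These data come from cells grown in 96-well plates and exposed to compound for 48 hours at five concentrations. The concentration for 50% growth inhibition is given as GI50. TGI: total growth inhibition.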 Some results are limits rather than exact numbers.

Test in all cases: NCI tumour cell line growth inhibition, 48 h
Assay [1] relates to BT-549 breast.
The subject of assay [2] is HCT-15 colon.
The test system of assay [3] is HOP-62 NSCLC.
The test system of assay [4] is HS 578T breast.
Assay [5] has as its system HT29 colon.
The test system of assay [6] is NCI-H460 lung.
Assay [7] relates to OVCAR-5 ovarian.
The subject of assay [8] is SF-295 CNS.
Assay [9] has as its system SR leukemia.
Assay [10] has as its system U251 CNS.

In the case of `[N-]=[N+]=NCCCn1c2c(c3ccc([N+](=O)[O-])cc3c1=O)C(=O)c1cc(F)ccc1-2`, the GI50 is 5.37 µM in [1]; 5.86 µM in assay [2]; 0.32 µM in assay [3]; 36.5 µM in assay [4]; 1.24 µM in [5]; 0.132 µM in assay [6]. For the same molecule, the GI50 in [7] is 14.4 µM; in assay [8] it was 0.338 µM; in [9], 0.113 µM; in assay [10] it was 0.539 µM. The TGI in assay [1] was greater than 100 µM; in [2] it was greater than 100 µM; in [3], 7.04 µM; in [4] it was greater than 100 µM; in [5], greater than 35.2 µM; in assay [6] it was 2.34 µM. The TGI in assay [7] is greater than 100 µM; in assay [8], 9.94 µM; in assay [9], 2.86 µM; in assay [10] it was 8.89 µM.
Regarding `Fc1cccc(-n2ccc(-c3ccccc3)nc2=S)c1`, the GI50 in assay [1] was 10.4 µM; in [2], 17.3 µM; in [3], greater than 63.4 µM; in assay [4], 17.7 µM; in assay [5], 57.3 µM; in assay [6], greater than 100 µM. In addition, the GI50 is greater than 94.4 µM in assay [7], 44.1 µM in [8], 53.6 µM in assay [9] and 43.2 µM in [10]. Besides, the TGI is 26 µM in [1]; 36.1 µM in [2]; greater than 100 µM in assay [3]; 37.4 µM in assay [4]; greater than 100 µM in assay [5]; greater than 100 µM in assay [6]. In addition, the TGI is greater than 100 µM in assay [7], greater than 82.6 µM in [8], greater than 100 µM in assay [9] and greater than 100 µM in assay [10].
With `Cc1cc(-c2ccccn2)cc(C)c1/C=C/c1cncc(-c2nn[nH]n2)c1`, the GI50 in [1], in assay [2], in [3], in assay [4], in assay [5] and in assay [6] was greater than 25 µM in each case. Besides, the GI50 in assay [7], in [8], in assay [9] and in assay [10] was greater than 25 µM in each case. Moreover, the TGI in assay [1], in assay [2], in [3], in [4], in [5] and in assay [6] was greater than 25 µM each time. The TGI in [7], in assay [8], in [9] and in [10] was greater than 25 µM in each case.
Regarding `CC(=O)O[C@H](C[C@H](C(C)C)N(C)C(=O)[C@@H](NC(=O)[C@H]1CCCN1C)C(C)C)c1nc(C(=O)N[C@@H](Cc2ccccc2)C[C@H](C)C(=O)O)c(C)s1`, the GI50 in [1] is less than 0.00167 µM; in assay [2] it was 0.00772 µM; in assay [3] it was less than 0.00167 µM; in [4], less than 0.00167 µM; in [5], less than 0.00167 µM; in assay [6], less than 0.00167 µM. The GI50 in [7] is 0.00716 µM; in assay [8], less than 0.00167 µM; in [9], less than 0.00167 µM; in assay [10], less than 0.00167 µM. Also, the TGI in assay [1] is 0.151 µM; in [2], greater than 16.7 µM; in [3], greater than 16.7 µM; in assay [4], greater than 16.7 µM; in [5], greater than 16.7 µM; in assay [6], greater than 16.7 µM. In addition, the TGI in [7], in assay [8], in assay [9] and in assay [10] was greater than 16.7 µM throughout.
As to `COc1cc(-c2csc(NC(=O)Nc3ccc(C(F)(F)F)cc3)n2)cc(OC)c1OC`, the GI50 in assay [1] is 2.22 µM; in assay [2] it was 1.71 µM; in assay [3], 2.01 µM; in assay [4] it was 2.17 µM; in [5], 2.39 µM; in assay [6], 2.52 µM. The GI50 was 2.64 µM in assay [7], 1.66 µM in [8], 2.39 µM in [9] and 1.97 µM in assay [10]. Also, the TGI in [1] was found to be 6.94 µM; in assay [2] it was 4.09 µM; in assay [3] it was 5.07 µM; in assay [4], 5.47 µM; in [5], 7.08 µM; in [6], 7.01 µM. Moreover, the TGI was found to be 9.9 µM in assay [7], 4.35 µM in [8], 6.79 µM in assay [9] and 4.32 µM in assay [10].
As to `CCCN(CCC)c1ccc(/C=N/NC(=O)c2cccnc2)c(OC)c1`, the GI50 in assay [1] was 28.4 µM; in assay [2] it was 27.5 µM; in assay [3] it was 31.3 µM; in assay [4], 21.7 µM; in [5] it was 15.8 µM; in assay [6], 24.1 µM. In addition, the GI50 in assay [7] is 26.5 µM; in [8] it was 19 µM; in assay [9], 17.1 µM; in [10], 23.2 µM. The TGI in assay [1] is 84.8 µM; in [2], greater than 100 µM; in assay [3], greater than 100 µM; in [4], 99.3 µM; in assay [5], 55 µM; in assay [6], 75.4 µM. The TGI in [7] is greater than 100 µM; in assay [8] it was 77.8 µM; in assay [9], 59.6 µM; in assay [10], greater than 100 µM.
In the case of `COc1cc2nccc(Oc3ccc(NC(=O)Nc4cc(C)on4)c(Cl)c3)c2cc1OC`, the GI50 in assay [1] was 4.16 µM and 4.99 µM; in [2] it was 4.36 µM and 4.2 µM; in [3] it was 5.58 µM and > 10 µM; in assay [4] it was 1.48 µM and 1.54 µM; in assay [5], 3.01 µM and 2.78 µM; in assay [6], 3.41 µM and 4.31 µM. In addition, the GI50 was 4.15 µM and 4.08 µM in [7]; 2.08 µM and 3.08 µM in assay [8]; 2.62 µM and 3.86 µM in assay [9]; 4.68 µM and 8.17 µM in assay [10]. Besides, the TGI in assay [1] was 13.4 µM and > 10 µM; in [2] it was greater than 100 µM; in assay [3], greater than 100 µM; in assay [4], 5.78 µM and > 10 µM; in assay [5], 15.5 µM and > 10 µM; in assay [6] it was greater than 70.4 µM. Besides, the TGI in assay [7] is 42.9 µM and > 10 µM; in assay [8], 14 µM and > 10 µM; in assay [9], 34.4 µM and > 10 µM; in [10], greater than 100 µM.
For the molecule `OCCNc1nc(Nc2ccc(Cl)c(Cl)c2)nc2ccccc12`, the GI50 in assay [1] was 16 µM; in assay [2], 2.84 µM; in assay [3], 5.39 µM; in [4], 6.91 µM; in [5], 3.39 µM; in assay [6] it was 3.71 µM. Also, the GI50 was 2.21 µM in [7], 6.1 µM in assay [8], 2.65 µM in [9] and 3.7 µM in assay [10]. Moreover, the TGI in assay [1] came to 29.8 µM; in assay [2], 9.34 µM; in [3], 19.5 µM; in assay [4], 25.2 µM; in assay [5], 12.1 µM; in [6], 16.5 µM. For the same molecule, the TGI turned out to be 6.22 µM in assay [7], 20.2 µM in assay [8], 9.67 µM in assay [9] and 15.5 µM in assay [10].
For the molecule `CC1(C)NCCC[C@]2(C)[C@H]3CC[C@@H]4[C@H]5[C@H](C(=O)/C=C/c6ccccn6)CC[C@]5(CO)CC[C@@]4(C)[C@]3(C)CC[C@@H]12`, the GI50 in assay [1] was 2.27 µM; in assay [2] it was 1.84 µM; in [3], 6.23 µM; in assay [4], 4.39 µM; in assay [5], 2.85 µM; in assay [6], 1.78 µM. The GI50 is 3.69 µM in [7], 1.82 µM in assay [8], 1.81 µM in assay [9] and 1.68 µM in [10]. Also, the TGI was determined as 11 µM in assay [1]; 3.89 µM in assay [2]; 29.4 µM in assay [3]; 23.6 µM in assay [4]; 11.3 µM in assay [5]; 3.49 µM in assay [6]. Also, the TGI in [7] stood at 16.9 µM; in assay [8], 3.47 µM; in assay [9] it was 6.27 µM; in [10], 3.24 µM.
With `CCCCCCCCCNC(=O)/C=C/c1ccc(O)c(O)c1`, the GI50 is 32.4 µM in assay [1]; 5.25 µM in assay [2]; 12.2 µM in assay [3]; 0.451 µM in assay [4]; 17.9 µM in assay [5]; 14.1 µM in assay [6]. Moreover, the GI50 was 21.5 µM in [7], 18.8 µM in assay [8], 2.76 µM in [9] and 10.2 µM in assay [10]. For the same molecule, the TGI is greater than 100 µM in [1]; 19.9 µM in assay [2]; 25.1 µM in assay [3]; 12.9 µM in [4]; greater than 100 µM in assay [5]; 57.1 µM in [6]. In addition, the TGI was determined as 45.8 µM in assay [7], 40.3 µM in assay [8], 21 µM in assay [9] and 23.3 µM in assay [10].
